The assay addresses T1, Axl (Homo sapiens, UniProt P30530).
T1 construct: endogenous in cells; host or cells: HeLa cells
T1 sequence (P30530 26-894): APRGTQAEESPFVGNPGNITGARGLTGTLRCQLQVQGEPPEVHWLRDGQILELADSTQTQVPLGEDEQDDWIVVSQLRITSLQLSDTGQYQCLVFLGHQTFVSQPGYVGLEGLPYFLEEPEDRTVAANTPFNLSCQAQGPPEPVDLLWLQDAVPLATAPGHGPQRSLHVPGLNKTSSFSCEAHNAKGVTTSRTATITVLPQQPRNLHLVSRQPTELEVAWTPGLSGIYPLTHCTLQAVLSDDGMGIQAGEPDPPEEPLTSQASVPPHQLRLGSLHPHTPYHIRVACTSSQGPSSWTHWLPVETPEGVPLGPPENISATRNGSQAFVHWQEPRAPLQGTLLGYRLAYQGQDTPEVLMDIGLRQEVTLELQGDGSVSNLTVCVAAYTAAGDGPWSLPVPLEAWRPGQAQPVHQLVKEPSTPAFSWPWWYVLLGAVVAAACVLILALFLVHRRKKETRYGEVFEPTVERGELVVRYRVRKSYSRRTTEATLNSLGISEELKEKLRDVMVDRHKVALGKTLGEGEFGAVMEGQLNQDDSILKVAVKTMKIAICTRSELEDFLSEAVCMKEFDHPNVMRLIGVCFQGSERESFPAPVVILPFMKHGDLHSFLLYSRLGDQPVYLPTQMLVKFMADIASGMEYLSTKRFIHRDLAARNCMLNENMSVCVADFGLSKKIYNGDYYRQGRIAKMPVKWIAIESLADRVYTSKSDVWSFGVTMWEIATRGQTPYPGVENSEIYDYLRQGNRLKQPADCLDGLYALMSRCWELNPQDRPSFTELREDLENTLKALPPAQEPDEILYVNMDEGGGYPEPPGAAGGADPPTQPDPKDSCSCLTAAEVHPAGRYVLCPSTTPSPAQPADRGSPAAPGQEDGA
The assay can be described thus: Phospho-Akt In-Cell Western Assay (inhibition of Axl activity after Axl-antibody cross-linking). It is filed as cell-based. The following applies: read-out: IC50. The gist of the method:
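Phospho-Akt was detected in formaldehyde-fixed cells by in-cell immunostaining with HRP chemiluminescence. Before fixation, HeLa cells kept 24 h in low-serum medium containing 500 ng/mL Axl/Fc received compound for 1 h at 37 °C, followed by 5-min Axl activation through antibody clustering.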

Where [1] appears, read: Hela cells, phospho-Akt chemiluminescence normalized to relative cell number, compounds of formula (Ia), Table 1.
[2] abbreviates: Hela cells, phospho-Akt chemiluminescence normalized to relative cell number, compounds of formula (Ib), Table 2.
Where [3] appears, read: inhibition of Axl activity, Table 1, compounds of formula (Ia).

SMILES strings stand for the structures. Like-named read-outs stand apart in the source and are kept apart here.

By IC50 is commonly meant the midpoint of a concentration-inhibition curve.

For `Nc1nc(Nc2ccc(N3CCC(N4CCCC4)CC3)cc2)nn1-c1cc2c(nn1)-c1ccccc1OCC2` [Compound 116, 1-(6,7-dihydro-5H-benzo[2,3]oxepino[4,5-c]pyridazin-3-yl)-N^3-(4-(4-pyrrolidin-1-ylpiperidinyl)phenyl)-1H-1,2,4-triazole-3,5-diamine], the IC50 under setting [1] fell in the range of 1000 to 10000 nM. In the case of `CN1CCC(N2CCN(c3ccc(Nc4nc(N)nn4-c4cc5c(nn4)-c4ccccc4CCC5)cc3F)CC2)CC1` [Compound 168, 1-(6,7-dihydro-5H-benzo[6,7]cyclohepta[1,2-c]pyridazin-3-yl)-N^5-(3-fluoro-4-(4-N-methylpiperid-4-ylpiperazinyl)phenyl)-1H-1,2,4-triazole-3,5-diamine], the IC50 under setting [2] was in the range of 1000 to 10000 nM. For the compound `Nc1nc(Nc2ccc(C3NCC4CNCC43)c(F)c2)nn1-c1cc2c(nn1)-c1ccccc1CCC2` (stereo not shown) [Compound 137, 1-(6,7-dihydro-5H-benzo[6,7]cyclohepta[1,2-c]pyridazin-3-yl)-N^3-(3-fluoro-4-(octahydropyrrolo[3,4-c]pyrrolyl)phenyl)-1H-1,2,4-triazole-3,5-diamine], the IC50 under setting [3] was less than 1000 nM.

As to `Nc1nc(Nc2ccc(N3CCC(N4CCCCC4)CC3)c(F)c2)nn1-c1cc2c(nn1)-c1ccccc1CCC2` [Compound 6, 1-(6,7-dihydro-5H-benzo[6,7]cyclohepta[1,2-c]pyridazin-3-yl)-N^3-(3-fluoro-(4-(4-piperidin-1-yl)piperidin-1-yl)phenyl)-1H-1,2,4-triazole-3,5-diamine], the IC50 under setting [1] was less than 1000 nM.

As to `CN1CCN(c2ccc(Nc3nc(N)nn3-c3cc4c(nn3)-c3ccccc3CCC4)cc2F)CC1` [Compound 242, 1-(6,7-dihydro-5H-benzo[6,7]cyclohepta[1,2-c]pyridazin-3-yl)-N^5-(3-fluoro-4-(4-methylpiperazin-1-yl)phenyl)-1H-1,2,4-triazole-3,5-diamine], the IC50 under setting [2] lay in the range of 1000 to 10000 nM. Regarding `CN(C)C1CCN(c2ccc(Nc3nc(N)n(-c4cc5c(nn4)-c4ccccc4CCC5)n3)cc2F)CC1` [Compound 61, 1-(6,7-dihydro-5H-benzo[6,7]cyclohepta[1,2-c]pyridazin-3-yl)-N^3-(3-fluoro-4-(4-dimethylaminopiperidin-1-yl)phenyl)-1H-1,2,4-triazole-3,5-diamine], the IC50 under setting [1] is less than 1000 nM.

On to `Nc1nc(Nc2ccc(N3CCC(N4CCCC4)CC3)c(F)c2)nn1-c1cc2c(nn1)-c1ccccc1CCC2` [Compound 4], for which the IC50 under setting [1] was less than 1000 nM. Same read-out and setting: then `CCCN1CCC2CN(c3ccc(Nc4nc(N)n(-c5cc6c(nn5)-c5ccccc5CCC6)n4)cc3F)CCC21` (stereo not shown) [Compound 84, 1-(6,7-dihydro-5H-benzo[6,7]cyclohepta[1,2-c]pyridazin-3-yl)-N^3-(3-fluoro-4-(1-propyloctahydro-1H-pyrrolo[3,2-c]pyridine-5-yl)phenyl)-1H-1,2,4-triazole-3,5-diamine], with less than 1000 nM; and `Nc1nc(Nc2ccc(CN3CCC(N4CCCC4)CC3)cc2)nn1-c1cc2c(nn1)-c1ccccc1CCC2` [Compound 103, 1-(6,7-dihydro-5H-benzo[6,7]cyclohepta[1,2-c]pyridazin-3-yl)-N^3-(4-((4-pyrrolidin-1-ylpiperidinyl)methyl)phenyl)-1H-1,2,4-triazole-3,5-diamine], with less than 1000 nM.

As to `Nc1nc(Nc2cnc3c(c2)CN(C2CCCC2)CCC3)nn1-c1cc2c(nn1)-c1ccccc1CCC2` [Compound 139, 1-(6,7-dihydro-5H-benzo[6,7]cyclohepta[1,2-c]pyridazin-3-yl)-N^3-(6-cyclopentyl-6,7,8,9-tetrahydro-5H-pyrido[3,2-c]azepin-3-yl)-1H-1,2,4-triazole-3,5-diamine], the IC50 under setting [3] was greater than 20000 nM. As for `Nc1nc(Nc2ccc(N3CCN(C4CCCC4)CC3)c(F)c2)nn1-c1cc2c(nn1)-c1ccccc1CCC2` [Compound 107, 1-(6,7-dihydro-5H-benzo[6,7]cyclohepta[1,2-c]pyridazin-3-yl)-N^3-(3-fluoro-4-(4-cyclopentylpiperazinyl)-phenyl)-1H-1,2,4-triazole-3,5-diamine], under setting [1], the IC50 was less than 1000 nM. As to `Cc1csc2c(-n3nc(Nc4cnc5c(c4)CCC4(CC5)OCCO4)nc3N)nc(Cl)nc12` [Compound 241, 1-(2-chloro-7-methylthieno[3,2-d]pyrimidin-4-yl)-N^3-(5,6,8,9-tetrahydrospiro[cyclohepta[b]pyridine-7,2′-[1,3]dioxolane]-3-yl)-1H-1,2,4-triazole-3,5-diamine], the IC50 under setting [3] is less than 1000 nM. Still for that read-out and setting: then `CN1CCN(c2ccc(Nc3nc(N)n(-c4cc(-c5ccccc5)c5c(n4)-c4ccccc4CCC5)n3)cc2)CC1` [Compound 193, 1-(4-phenyl-6,7-dihydro-5H-benzo[6,7]cyclohepta[1,2-b]pyridin-2-yl)-N^3-(4-(4-methylpiperazin-1-yl)phenyl)-1H-1,2,4-triazole-3,5-diamine], with 1000 to 10000 nM; and `CN(C)C1CCN(CC=Cc2ccc(Nc3nc(N)n(-c4cc5c(nn4)-c4ccccc4CCC5)n3)cc2)C1` (stereo not shown) [Compound 200, 1-(6,7-dihydro-5H-benzo[6,7]cyclohepta[1,2-c]pyridazin-3-yl)-N^3-(4-(3-dimethylaminopyrrolidin-1-ylprop-1-enyl)phenyl)-1H-1,2,4-triazole-3,5-diamine], with less than 1000 nM. As to `Nc1nc(Nc2ccc(N3CCN(C4CC5CCC4C5)CC3)cc2)nn1-c1cc2c(nn1)-c1ccccc1CCC2` (stereo not shown) [Compound 33, 1-(6,7-dihydro-5H-benzo[6,7]cyclohepta[1,2-c]pyridazin-3-yl)-N^3-(4-(4-(bicyclo[2.2.1]heptan-2-yl)piperazin-1-yl)phenyl)-1H-1,2,4-triazole-3,5-diamine], the IC50 under setting [1] fell in the range of 1000 to 10000 nM. `COc1cc2c(cc1OC)-c1nnc(-n3nc(Nc4ccc(N5CCC(N6CCCC6)CC5)c(F)c4)nc3N)cc1CCC2` [Compound 64, 1-(6,7-dihydro-5H-9,10-dimethoxybenzo[6,7]cyclo-hepta[1,2-c]pyridazin-3-yl)-N^3-(3-fluoro-4-(4-pyrrolidin-1-yl-piperidin-1-yl)phenyl)-1H-1,2,4-triazole-3,5-diamine]: the IC50 under setting [1] lay within 1000 to 10000 nM. In the case of `CCCN1CC2CN(c3ccc(Nc4nc(N)n(-c5cc6c(nn5)-c5ccccc5CCC6)n4)cc3F)CC2C1` (stereo not shown) [Compound 72, 1-(6,7-dihydro-5H-benzo[6,7]cyclohepta[1,2-c]pyridazin-3-yl)-N^3-(3-fluoro-4-(5-propyl-octahydropyrrolo[3,4-c]pyrrolyl)phenyl)-1H-1,2,4-triazole-3,5-diamine], the half-inhibitory concentration (IC50) under setting [1] is less than 1000 nM. Still for that read-out and setting: then `CN(CCOc1ccc(Nc2nc(N)n(-c3cc4c(nn3)-c3ccccc3CCC4)n2)cc1)C1CCCC1` [Compound 60, 1-(6,7-dihydro-5H-benzo[6,7]cyclohepta[1,2-c]pyridazin-3-yl)-N^3-(4-(2-(N-methylcyclopentylamino)-ethoxy)phenyl)-1H-1,2,4-triazole-3,5-diamine], with less than 1000 nM. As for `Nc1nc(Nc2ccc3c(c2)CCC(NC2CCCCC2)CC3)nn1-c1cc2c(nn1)-c1ccccc1CCC2` (stereo not shown) [Compound 224, 1-(6,7-dihydro-5H-benzo[6,7]cyclohepta[1,2-c]pyridazin-3-yl)-N^3-(7-cyclohexylamino-6,7,8,9-tetrahydro-5H-benzo[7]annulene-2-yl)-1H-1,2,4-triazole-3,5-diamine], the IC50 under setting [3] was less than 1000 nM.

The values above are taken from patent publication US7709482B2, “Polycyclic heteroaryl substituted triazoles useful as Axl inhibitors” (Rigel Pharmaceuticals, Inc., priority 2006, dated 2010).
